Measured values published in US4863951A, “Pharmacologically active amino-5,6,7,8-tetrahydronaphtho [2,3-B] furan compounds” (ADIR Et Cie, priority 1987, dated 1989).
Counter-ions that a name gives are not always drawn.

Legend:
[1] = system: apomorphine-induced rearing-up; test: Antagonism of apomorphine-induced rearing-up behavior in mice; format: in vivo; details: apomorphine 0.75 mg.kg^-1 s.c.; for % inhibition of rearing-up: mice, hydrochloride; for change in vivo at 2.5 mg/kg / change in vivo at 5 mg/kg / change in vivo at 10 mg/kg / change in vivo at 20 mg/kg: Mus musculus, ip; for change in vivo at 2.5 mg/kg: read-out: % inhibition of rearing-up, mice, i.p. dose 2.5 mg.kg^-1; for change in vivo at 5 mg/kg: read-out: % inhibition of rearing-up, mice, i.p. dose 5 mg.kg^-1; for change in vivo at 10 mg/kg: read-out: % inhibition of rearing-up, mice, i.p. dose 10 mg.kg^-1; for change in vivo at 20 mg/kg: read-out: % inhibition of rearing-up, mice, i.p. dose 20 mg.kg^-1
Protocol: Studied in the test of antagonism of apomorphine-induced rearing-up following the subcutaneous administration of a dose of 0.75 mg.kg^-1 of this substance in mice, the compounds of general formula I act in a clear-cut manner at doses greater than or equal to 2.5 mg.kg^-1 (i.p.). The same results are observed when the compounds of general formula I are administered orally at a dose of 20 mg.kg^-1. The activity of the compounds was assessed according to the method described by Protais P, Costentin J and Schwartz J. C. in Psychopharmacology (1976), 50, p. 1-6.
(s=significant difference, p<0.05).

[2] = system: apomorphine-induced hypothermia; test: Antagonism with respect to apomorphine-induced hypothermia in mice; format: in vivo; details: apomorphine 1 mg.kg^-1 s.c., after 2 hours; for % antagonism of hypothermia: mice, hydrochloride; for change in vivo at 2.5 mg/kg / change in vivo at 5 mg/kg / change in vivo at 10 mg/kg / change in vivo at 20 mg/kg: Mus musculus, ip, 2 h; for change in vivo at 2.5 mg/kg: read-out: % antagonism of hypothermia, mice, i.p. dose 2.5; for change in vivo at 5 mg/kg: read-out: % antagonism of hypothermia, mice, i.p. dose 5; for change in vivo at 10 mg/kg: read-out: % antagonism of hypothermia, mice, i.p. dose 10; for change in vivo at 20 mg/kg: read-out: % antagonism of hypothermia, mice, i.p. dose 20
Protocol: Testing for an antagonism with respect to apomorphine-induced hypothermia in mice was performed according to the method described by CHERMAT R. and PONCELET M. in J. Pharmac. (1983), 14, No. 1, p. 93-97. The dose of apomorphine administered subcutaneously was 1 mg.kg^-1. Tables VII and VIII show the percentage antagonism of the hypothermia observed after 2 hours.

[3] = system: isolation-induced aggression; test: Antiaggressive effects: isolation-induced aggression in mice; format: in vivo; details: isolated mice, i.p.
Source text: (§1) The antiaggressive effects of the compounds of the invention were investigated by two methods, one of them testing for an inhibition of aggressive behavior in peviously isolated mice (Yen C. Y., Stanger A. L., and Millman N, Arch. Int. Pharmacodyn. Therap. (1959), 123, p. 179-185), and the other in isolated and bulbectomized rats (Garattini S. and Sigg E. B. "Aggressive Behaviour" p. 47-55 Ed. Excerpta Medica Found., Amsterdam, 1969).
(§2) (Tables IX and X, s=significant, p<0.05).

[4] = system: aggression of isolated, bulbectomized rats; test: Antiaggressive effects: aggression of isolated, bulbectomized rats; format: in vivo; details: i.p.
Source text: as §1, §2

[5] = system: interoceptive stimulus of apomorphine; test: Drug discrimination in rats (generalization with apomorphine); format: in vivo; details: 2.5 mg.kg^-1 i.p., 30 minutes before test, hydrochloride
Protocol: Rats were trained to discriminate between the effect of the interoceptive stimulus of apomorphine (0.2 mg.kg^-1 i.p.) and that of physiological saline, according to a principle described by Colpaert F. in "Drug discrimination application in C.N.S. Pharmacology" Ed. Elsevier Biomedical 1982, Amsterdam. […]
Under the experimental conditions employed, the behavior shown by the animals coincides with that noted in the case of administration of apomorphine.

[6] = system: apomorphine-induced stereotypy; test: Antagonism of apomorphine-induced stereotypy in rats; format: in vivo; details: apomorphine 1.5 mg.kg^-1 i.p., 30 minutes; for change in vivo at 10 mg/kg: read-out: % ISS (inhibition (-) or potentiation (+) of the stereotypy score), rats, i.p. dose 10 mg.kg^-1; for % ISS (inhibition (-) or potentiation (+) of the stereotypy score): rats, hydrochloride
Protocol: The inhibitory activity of the compounds of the invention with respect to apomorphine- or amphetamine-induced stereotypy in rats was assessed using the scale of scoring of stereotyped movements described by Quinton R. M. and Halliwell G. in Nature (1963), 200, p. 178-179.
Apomorphine or amphetamine was administered to the animals intraperitoneally at a dose of 1.5 mg.kg^-1. The percentage inhibition (-) or potentiation (+) of the stereotypy score (% ISS) shown in Tables IV and V for apomorphine corresponds to a measurement time of 30 minutes. In contrast, the percentage inhibition of the stereotypy score shown in Table VI for amphetamine corresponds to a measurement time of 3 hours. […]

[7] = system: reserpine-induced hypothermia; test: Antagonism of reserpine-induced hypothermia; format: in vivo, Swiss CD male mice; details: mice, reserpine 2.5 mg.kg^-1 i.p.
Protocol: (§3) The antidepressant effects of the compounds of the invention were investigated by assessing the antagonism of reserpine-induced hypothermia and the antagonism of the ponto-geniculo-occipital waves induced by the compound Ro4-1284 in cats.
The study is carried out on Swiss CD male mice (27-28 g). After distribution into groups of 10 animals each, reserpine is injected intraperitoneally at a dose of 2.5 mg.kg^-1. Three hours later, the compounds undergoing trial are administered intraperitoneally. The rectal temperature of the animals is measured one hour and two hours after the second treatment, and compared with the initial temperature To of these same animals, measured immediately before the administration of the compounds undergoing trial.

[8] = system: ponto-geniculo-occipital (P.G.O.) waves induced by Ro4-1284; test: Antagonism of the ponto-geniculo-occipital (P.G.O.) waves induced by Ro4-1284; format: in vivo; details: Felis catus, iv, cats, i.v., read-out: ED50 (effective dose inhibiting by 50% the number of P.G.O. waves)
Protocol: as §3
This study was performed according to the method of Ruch-Monachon M. A., Jalfre M. and Haefely W. described in Arch. Int. Pharm. Therap., (1976), 219, No. 2, p. 251-346, and it enabled the effective dose (i.v) inhibiting by 50% (ED50) the number of P.G.O waves to be assessed.

[9] = 10 mg.kg^-1 i.p., hydrochloride
[10] = 20 mg.kg^-1 i.p., hydrochloride

Row | SMILES | % of pairs of mice showing no sign of fighting ([3]; 5 mg.kg^-1, hydrochloride) [%] | change in vivo at 2.5 mg/kg [1] [%] | change in vivo at 5 mg/kg [1] [%] | change in vivo at 10 mg/kg [1] [%] | change in vivo at 20 mg/kg [1] [%] | change in vivo at 10 mg/kg ([6]; Rattus norvegicus, ip, 0.5 h) [%] | change in vivo at 2.5 mg/kg [2] [%] | change in vivo at 5 mg/kg [2] [%] | change in vivo at 10 mg/kg [2] [%] | change in vivo at 20 mg/kg [2] [%] | % of pairs of mice showing no sign of fighting ([3]; 2.5 mg.kg^-1) [%] | % of pairs of mice showing no sign of fighting ([3]; 5 mg.kg^-1) [%] | % of pairs of mice showing no sign of fighting ([3]; 10 mg.kg^-1) [%] | % of rats rendered non-aggressive ([4]; 2.5 mg.kg^-1) [%] | % inhibition of hypothermia ([7]; 2.5 mg.kg^-1 i.p.) [%] | % inhibition of hypothermia ([7]; 5 mg.kg^-1 i.p.) | % inhibition of hypothermia ([7]; 10 mg.kg^-1 i.p.) | % inhibition of hypothermia ([7]; 20 mg.kg^-1 i.p.) | ED50 [8] [mg/kg] | % inhibition of hypothermia [7, 9] | other results
1 | NC1CCc2cc3c(cc2C1)OCC3 (stereo not drawn) [Example 4, l-7-Amino-2,3,5,6,7,8-hexahydronaphtho[2,3-b]furan hydrochloride] | 44 | – | – | – | – | – | – | – | – | – | – | – | – | – | – | – | – | – | – | – | % inhibition of rearing-up ([1]; i.p. dose 10 mg.kg^-1): -24%; % inhibition of rearing-up ([1]; i.p. dose 20 mg.kg^-1): -86%; % antagonism of hypothermia ([2]; i.p. dose 2.5): -8%; % antagonism of hypothermia ([2]; i.p. dose 5): -3%; % antagonism of hypothermia ([2]; i.p. dose 10): -11%; % antagonism of hypothermia ([2]; i.p. dose 20): -19%; % of pairs of mice showing no sign of fighting ([3]; 2.5 mg.kg^-1, hydrochloride): 22%; % of rats rendered non-aggressive ([4]; 2.5 mg.kg^-1, hydrochloride): 12%; % of animals which generalize [5]: 70%; Number of animals showing the effect of generalization with apomorphine [5]: 7/10
2 | CN(C)C1CCc2cc3c(cc2C1)OCC3 (racemic) [Example 6, dl-7-(N,N-Dimethylamino)-2,3,5,6,7,8-hexahydronaphtho[2,3-b]furan hydrochloride] | – | -17 | -54 | -94 | -100 | -48 | 6 | -6 | -25 | -48 | 40 | 44 | 78 | 30 | -1 | +1% | -24% | -20% | 0.498 | – | change in vivo at 20 mg/kg ([6]; Rattus norvegicus, ip, 0.5 h, read-out: % ISS (inhibition (-) or potentiation (+) of the stereotypy score), rats, i.p. dose 20 mg.kg^-1): -58%
3 | CN(C)C1CCc2cc3c(cc2C1)OCC3 (stereo not drawn) [Example 40, d-7-(N,N-Dimethylamino)-2,3,5,6,7,8-hexahydronaphtho[2,3,-b]furan hydrochloride] | 22 | -75 | -100 | – | – | – | – | – | -44 | -73 | – | – | – | – | – | – | – | – | – | +14% | % ISS (inhibition (-) or potentiation (+) of the stereotypy score) ([6]; i.p. dose 10 mg.kg^-1): -61%; % ISS (inhibition (-) or potentiation (+) of the stereotypy score) ([6]; i.p. dose 20 mg.kg^-1): -67%; % of pairs of mice showing no sign of fighting ([3]; 10 mg.kg^-1, hydrochloride): 50%; % of rats rendered non-aggressive ([4]; 10 mg.kg^-1, hydrochloride): 42%; % inhibition of hypothermia [7, 10]: +14%
4 | CNC1CCc2cc3c(cc2C1)OCC3 (racemic) [Example 9, dl-7-(N-Methylamino)-2,3,5,6,7,8-hexahydronaphtho[2,3-b]furan hydrochloride] | – | -46 | -65 | -100 | -100 | – | -39 | -67 | -86 | -84 | 67 | 56 | 89 | 27 | -8 | +37% | +16% | +11% | 0.173 | – | % of rats rendered non-aggressive ([4]; 5 mg.kg^-1): 58%
5 | CN(C)C1CCc2cc3c(cc2C1)OCC3 (stereo not drawn) [Example 41, l-7-(N,N-Dimethylamino)-2,3,5,6,7,8-hexahydronaphtho[2,3-b]furan hydrochloride] | 66 | – | – | – | – | – | – | – | – | – | – | – | – | – | – | – | – | – | – | +13% | % ISS (inhibition (-) or potentiation (+) of the stereotypy score) ([6]; i.p. dose 10 mg.kg^-1): +11%; % ISS (inhibition (-) or potentiation (+) of the stereotypy score) ([6]; i.p. dose 20 mg.kg^-1): +3%; % of pairs of mice showing no sign of fighting ([3]; 10 mg.kg^-1, hydrochloride): 90%; % of rats rendered non-aggressive ([4]; 10 mg.kg^-1, hydrochloride): 50%; % inhibition of hypothermia [7, 10]: +29%
6 | CNC1CCc2cc3c(cc2C1)OCC3 (stereo not drawn) [Example 38, d-7-(N-Methylamino)-2,3,5,6,7,8-hexahydronaphtho[2,3-b]furan hydrochloride] | 70 | -76 | -100 | – | – | -54 | -48 | -91 | -112 | -119 | – | – | – | 37 | – | – | – | – | – | -21% | change in vivo at 5 mg/kg ([6]; Rattus norvegicus, ip, 0.5 h, read-out: % ISS (inhibition (-) or potentiation (+) of the stereotypy score), rats, i.p. dose 5 mg.kg^-1): -60%; % of rats rendered non-aggressive ([4]; 5 mg.kg^-1, hydrochloride): 75%; % inhibition of hypothermia ([7]; 2.5 mg.kg^-1 i.p., hydrochloride): -28%; % inhibition of hypothermia ([7]; 5 mg.kg^-1 i.p., hydrochloride): -35%
